Literature values as cited in patent publication US9555150B2, “Absorbent articles comprising an organic zinc salt and an anti-bacterial agent or alkali metal chloride or alkaline earth metal chloride” (SCA HYGIENE PRODUCTS AB, priority 2006, dated 2017).

Details: measured in water at 25° C

pK	Structure (SMILES)
4.75	CC(=O)O [Acetic acid, acetic acid]
4.76	C/C=C/C=C/C(=O)O [sorbic acid]

Structure (SMILES)	pK
O=C(O)c1ccccc1 [benzoic acid]	4.19
